As usually defined, the solubility is the dissolved amount per volume that the medium holds. In general, EC50 refers to the concentration that produces a half-maximal response.

The structures appear in SMILES notation. ≈ marks a conversion by molar mass, not a printed value. Where a name gives a salt, the structure may show the parent alone. Read-outs that look alike come from different tables or passages of the source.

A short description of data set [1]: Lipid solubility: octanol / pH 7.4 phosphate buffer partition coefficient. It counts as physicochemical. As to conditions: n-octanol / pH 7.4 isotonic phosphate buffer, read-out: log D (pH 7.4). How it is done:
An equi-volume mixture of n-octanol (hereinafter referred to as octanol) and pH 7.4 isotonic phosphate buffer (hereinafter referred to as aqueous phase) was shaken in a suitable vessel, then statically left for 24 hours or more, and the upper layer (water-saturated octanol) and the lower layer (octanol-saturated water) were separately collected.
1 mg of a test compound was put into a test tube, and 5 ml of the water-saturated octanol was added thereto, ultrasonicated for 10 minutes and then stirred for about 30 seconds. In case where an insoluble substance was seen, then the liquid was filtered through a 0.45-μm membrane filter. 2 mL of the water-saturated octanol solution of the test compound was taken into a test tube, 2 mL of the octanol-saturated water was added thereto and shaken for 30 minutes. Then, this was centrifuged to separate into an upper layer (octanol phase) and a lower layer (aqueous phase), which were then separately collected.
The octanol phase and the aqueous phase were suitably diluted with DMSO, and the concentration of the test compound therein was determined through UV-detection HPLC or MS-detection HPLC.
From the concentration measured in each phase and the dilution ratio of each phase, the partition coefficient was derived through computation.
In case where the solubility in water of the test compound is estimated to be high, then the test compound is dissolved in the octanol-saturated water and then the water-saturated octanol is added thereto, shaken and centrifuged, and the upper layer (octanol phase) and the lower layer (aqueous phase) are separately collected to determine the concentration of the test compound.
The details of the HPLC apparatus and its operation condition are as follows: […]

Data set [2] in a line: Determination of solubility in JP-fluid 1 / JP-fluid 2 (HPLC). As to conditions: thermodynamic from solid, 12 hours or more. Format: physicochemical. How it is done: Determination of Solubility
One mg of a test compound was put into a test tube, and 1 ml of the first fluid for Japanese Pharmacopoeia Disintegration Test Method (synthetic gastric juice, pH 1.2: hereinafter referred to as JP-fluid 1) or the second fluid for Japanese Pharmacopoeia Disintegration Test Method (synthetic intestinal juice, pH 6.8: hereinafter referred to as JP-fluid 2) was added thereto and shaken, and then statically left at room temperature for 12 hours or more. After thus left, the sample was filtered through a 0.45-μm membrane filter, and the filtrate was suitably diluted with a mixture of DMSO-purified water (1/1) to prepare solutions for solubility determination.
Apart from the above, 1 mg of the test compound was put into a 20-mL messflask, and dissolved in a mixture of DMSO-purified water (1/1) to prepare a standard solution of 50 μg/mL. The standard solution was stepwise diluted to give serial dilutions, and using the dilutions, a calibration curve was formed.
The above-mentioned solutions for solubility determination with the JP-fluid 1 or the JP-fluid 2 were analyzed through HPLC, and based on the calibration curve formed in the above, the solubility of the test compound was computed.
The HPLC condition is as follows:
HPLC System for Alliance Assay (by Waters, USA),
Feed Pump: 2795 separation module,
UV Detector: 2996 photodiode array detector,
Column: ODS-type C18 column (3.5 μm, 3.0 mm ID×30 mm),
Column Temperature: 60° C.,
Mobile Phase A: pH 4.5, 10 mM acetate buffer,
Mobile Phase B: 50% acetic acid-acetonitrile mixture (1/999),
Gradient Condition: mobile phase A/B ratio, 95/5 to 10/90,
Sample Temperature: 25° C.,
Detection Wavelength: maximum absorption wavelength within a range of 220 to 420 nm.

The next data set concerns the target T1, hPPARγ (Homo sapiens, UniProt P37231).
T1 construct: expressed in transfected cells; host or cells: HEK293T
T1 sequence (P37231 238-503 limits assumed): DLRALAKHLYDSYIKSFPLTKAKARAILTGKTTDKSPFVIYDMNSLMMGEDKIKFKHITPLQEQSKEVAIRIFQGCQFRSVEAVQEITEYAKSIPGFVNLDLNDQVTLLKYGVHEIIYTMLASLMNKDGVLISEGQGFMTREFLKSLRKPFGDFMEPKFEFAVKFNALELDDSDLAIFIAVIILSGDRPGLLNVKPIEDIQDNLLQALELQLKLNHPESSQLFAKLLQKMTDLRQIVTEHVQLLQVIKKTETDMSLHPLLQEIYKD
The experiment in a line: GAL4-hPPAR transactivation assay (PPARγ). It counts as cell-based. The note with it: HEK293T cells, pFA-hPPARγ/GAL4 + pFR-SEAP reporter, about 48 hours. From the text:
(§1) GAL4-hPPAR Transactivation Assay
(§2) Plasmids for the expression of fusion protein for GAL4 DNA binding region-PPAR ligand binding region, pFA-hPPARα/GAL4 and pFA-hPPARγ/GAL4, were constructed by inserting the LBD cDNA of hPPARα and hPPARγ, respectively, into a commercially-available expression vector (pFA trans-activator plasmid, by STRATAGENE) having a GAL4 DNA binding region (GAL4 DBD) of yeast, under CMV promoter. For the expression of a reporter protein, used were a commercially-available plasmid (pFR-SEAP, by STRATAGENE) having a GAL4 responsive region (GAL4 UAS) in the upstream of cDNA of a secreted alkaline phosphatase (SEAP).
(§3) (b) Cell Culture and Transactivation Assay:
(§4) HEK293T cells were suspended in a high-glucose Dulbecco's modified Eagle's medium (DMEM) containing 10% fetal calf serum (by Hyclone), 100 U/mL penicillin G and […], and seeded in a 24-well cell culture plate in a density of 8×10^4 cells/well. The cells were cultured in a humidified atmosphere of 5% CO2 at 37° C. for 24 hours, and then subjected to transfection using Lipofectamine (by Invitrogen) and Plus reagent (by Invirogen) according to the manufacture's instruction in the absence of serum. Concretely, the cells were incubated in 225 μL of a transfection medium (OPTI-MEM, by Invitrogen) containing 0.48 μL of Lipofectamine, 0.030 μg of pFA-PPAR/GAL4 expression plasmid and 0.13 μg of pFR-SEAP, in a 5% CO2 atmosphere at 37° C. for 5 hours. Next, the same volume of a fresh high-glucose DMEM containing 10% fetal calf serum, 100 U/mL penicillin G, […] streptomycin sulfate and a test compound of two times the designated concentration was added to it, and the cells were incubated for about 48 hours. After the compound was solubilized in DMSO, control cells were incubated along with an equivalent concentration of DMSO. […] After the incubation, the culture supernatant was collected, and using a kit (reporter assay kit—SEAP, by TOYOBO), the SEAP activity was determined according to the manufacturer's instruction. Concretely, the same amount of an intrinsic alkaline phosphatase inhibitor was added to 5 μL of the culture supernatant and incubated at 37° C. for 30 minutes, and then 100 μL of a chemoluminescent substrate (Lumiphos PLUS, by Lumigen) was added thereto and incubated at 37° C. for 15 minutes, and thereafter the luminescence level was determined using a multi-label counter (ARVOsx, by Perkin Elmer). The values obtained as a result of the above operation and the concentrations of the test compound were plotted to obtain the EC50 value.

The target of the next data set is T2, hPPARα (Homo sapiens, UniProt Q07869).
T2 construct: expressed in transfected cells; host or cells: HEK293T
T2 sequence (Q07869 239-466 limits assumed): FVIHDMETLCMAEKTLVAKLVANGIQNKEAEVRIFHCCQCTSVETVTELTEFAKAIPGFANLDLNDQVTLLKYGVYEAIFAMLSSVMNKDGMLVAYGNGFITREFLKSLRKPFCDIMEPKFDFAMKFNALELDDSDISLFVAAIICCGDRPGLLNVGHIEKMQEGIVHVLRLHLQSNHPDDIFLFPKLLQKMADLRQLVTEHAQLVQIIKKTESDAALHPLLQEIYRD
Kind of data set: GAL4-hPPAR transactivation assay (PPARα). Format: cell-based. The note with it: HEK293T cells, pFA-hPPARα/GAL4 + pFR-SEAP reporter, about 48 hours.
Description: as §1, §2, §3, §4

The conditions of data set [3]: db/db mice, as compared with pioglitazone; cited from earlier work.
The conditions of data set [4]: in vivo; cited from earlier work.
For data set [5] the following is noted: patients associated with type II diabetes; cited from earlier work.
[6] abbreviates: fassgf or other biorelevant, synthetic intestinal juice, pH 6.8, room temperature, read-out: Solubility JP-fluid 2.
[7] abbreviates: simulated gastric fluid, synthetic gastric juice, pH 1.2, room temperature, read-out: Solubility JP-fluid 1.

For the molecule `Cc1oc(-c2cccc(Br)c2)nc1CN(Cc1ccc(OC(C)(C)C(=O)O)cc1)Cc1nccs1` [Example 1-(2), 2-[4-[[[2-(3-Bromophenyl)-5-methyloxazol-4-ylmethyl]thiazol-2-ylmethylamino]methyl]phenoxy-2-methylpropionic acid hydrochloride], the logD in data set [1] was determined as 2.7. Moreover, the solubility in data set [2] (setting [6]) was over 1000 µg/mL; in data set [2] (setting [7]) it was 490 µg/mL. The EC50 worked out at 590 nM at hPPARγ and 13 nM at hPPARα.
Taken in the same sequence, the figures for `Cc1oc(-c2cccc(Br)c2)nc1CN(Cc1ccncc1)Cc1ccc(OC(C)(C)C(=O)O)cc1` [Example 4-(2), 2-[4-[[[2-(3-Bromophenyl)-5-methyloxazol-4-ylmethyl]pyridin-4-ylmethylamino]methyl]phenoxy]-2-methylpropionic acid] were 2.5, under 3 µg/mL, 930 µg/mL (≈ 1690 µM), 180 nM and 4.8 nM.
In the case of `Cc1oc(-c2cccc(Br)c2)nc1CN(Cc1ccc(OC(C)(C)C(=O)O)cc1)Cc1cscn1` [Example 5-(2), 2-[4-[[[2-(3-Bromophenyl)-5-methyloxazol-4-ylmethyl]thiazol-4-ylmethylamino]methyl]phenoxy]-2-methylpropionic acid hydrochloride], the logD in data set [1] is 2.3. The solubility in data set [2] (setting [6]) is 680 µg/mL; in data set [2] (setting [7]), 520 µg/mL. In addition, the results for the EC50 at hPPARγ and at hPPARα were 220 nM and 2.6 nM, respectively.
On to `Cc1cc(CN(Cc2ncco2)Cc2nc(-c3ccccc3)oc2C)cc(C)c1OC(C)(C)C(=O)O` [Example 13-(2), 2-[2,6-Dimethyl-4-[[(5-methyl-2-phenyloxazol-4-ylmethyl)oxazol-2-ylmethylamino]methyl]phenoxy]-2-methylpropanoic acid], for which the logD in data set [1] was determined as 1.8. The solubility in data set [2] (setting [6]) and in data set [2] (setting [7]) was over 870 µg/mL throughout. The EC50 at hPPARγ stood at 5.5 nM; at hPPARα, 3.7 nM.
As to `Cc1cc(CN(Cc2nccs2)Cc2nc(-c3ccccc3)oc2C)cc(C)c1OC(C)(C)C(=O)O` [Example 16-(2), 2-[2,6-Dimethyl-4-[[(5-methyl-2-phenyloxazol-4-ylmethyl)thiazol-2-ylmethylamino]methyl]phenoxy]-2-methylpropanoic acid], the logD in data set [1] turned out to be 2.6. Besides, the solubility is 480 µg/mL (≈ 949 µM) in data set [2] (setting [6]) and over 490 µg/mL in data set [2] (setting [7]). The EC50 at hPPARγ stood at 8.8 nM; at hPPARα it was 2.4 nM.
For `Cc1nnc(CN(Cc2cc(C)c(OC(C)(C)C(=O)O)c(C)c2)Cc2nc(-c3ccccc3)oc2C)o1` [Example 18-(2), 2-[2,6-Dimethyl-4-[[(5-methyl-[1,3,4]oxadiazol-2-ylmethyl)-(5-methyl-2-phenyloxazol-4-ylmethyl)amino]methyl]phenoxy]-2-methylpropanoic acid], the logD in data set [1] turned out to be 1.1. Moreover, the solubility in data set [2] (setting [6]) and in data set [2] (setting [7]) was over 710 µg/mL in each case. Further, the EC50 amounted to 33 nM on hPPARγ and 2.9 nM on hPPARα.
As for `Cc1noc(CN(Cc2cc(C)c(OC(C)(C)C(=O)O)c(C)c2)Cc2nc(-c3ccccc3)oc2C)n1` [Example 19-(3), 2-[2,6-Dimethyl-4-[[(3-methyl-[1,2,4]oxadiazol-5-ylmethyl)-(5-methyl-2-phenyloxazol-4-ylmethyl)amino]methyl]-phenoxy]-2-methylpropanoic acid], the logD in data set [1] amounted to 1.8. Besides, the solubility was over 710 µg/mL in data set [2] (setting [6]) and 650 µg/mL (≈ 1290 µM) in data set [2] (setting [7]). For the same molecule, the EC50 turned out to be 6.9 nM at hPPARγ and 2.7 nM at hPPARα.
Regarding `COc1ccc(CC2SC(=O)NC2=O)cc1C(=O)NCc1ccc(C(F)(F)F)cc1` (centres unmarked) [KRP-297], in data set [3], the body weight increase result is on record as “significantly inhibits the body weight increase”.
In the case of `Cc1oc(-c2ccc(-c3ccccc3)cc2)nc1CCOc1ccc(OC(C)(C)C(=O)O)cc1` [LY465608], in data set [4], the “high-density lipoprotein (HDL)” value was “dose-dependently increases” and the plasma triglyceride entry is “lowers”.
Turning to `CCc1ccc(CCOc2ccc(CC3SC(=O)NC3=O)cc2)nc1` (centres unmarked) [Pioglitazone, pioglitazone], the “body weight increase or fluid accumulation” value in data set [5] was “observed in some patients”.
Consider `Cc1cc(CN(Cc2ccco2)Cc2sc(-c3ccc(C(F)(F)F)cc3)nc2C)ccc1OC(C)(C)C(=O)O` [SKB-compd, reference compound], for which the logD in data set [1] was 4.4. Further, the solubility in data set [2] (setting [6]) was 10 µg/mL (≈ 17.9 µM); in data set [2] (setting [7]), 240 µg/mL (≈ 430 µM). The figures for the EC50 on hPPARγ and on hPPARα were 48 nM and 44 nM, respectively.
